Laboratory results: ChEMBL document CHEMBL1156363, “Cytotoxic cyclic norterpene peroxides from a Red Sea sponge Diacarnus erythraenus” (J Nat Prod, 2001)

Tests used:
Format in all cases: functional, cell-based
A549 = test: Cytotoxicity against human A549 cells
HT-29 = test: Cytotoxicity against human HT-29 cells
P388 = test: Cytotoxicity against mouse P388 cells

Measured: IC50

CO[C@@]1(C)CCC(C(C)C)=C[C@@H]2[C@H]1CC[C@]2(C)O
> 1 µg/mL: all assays above

CC(=O)CCCC(C)(C)C(=O)CC/C(C)=C/CC[C@@]1(C)CC[C@H]([C@H](C)C(=O)O)OO1 [AIKUPIKOXIDE A]
> 1 µg/mL: all assays above

C=C1CCCC(C)(C)C1(O)CC[C@@]1(C)CC[C@@H]([C@H](C)C(=O)OC)OO1 (stereo not given in full) [AIKUPIKOXIDE B]
> 1 µg/mL: all assays above

C=C(CCCC(C)(C)O)C(=O)CC[C@@]1(C)CC[C@@H]([C@H](C)C(=O)OC)OO1 [AIKUPIKOXIDE D]
> 1 µg/mL: all assays above

COC(=O)[C@@H](C)[C@@H]1CC[C@](C)(CCC(=O)C(C)(C)CCCC(C)=O)OO1 [DIACARPEROXIDE B]
> 1 µg/mL: all assays above
